Measurements taken from US10709704B2, “Treating neural disease with tyrosine kinase inhibitors” (GEORGETOWN UNIVERSITY, priority 2012, dated 2020).

System: GFP-tagged TDP-43
Test: Distribution of GFP-tagged TDP-43 in M17 cells
Assay type: cell-based, human
Parameters: distribution of GFP-tagged TDP-43 / translocation of GFP-tagged TDP-43 with Nilotinib or Bosutinib: unit of the concentration uncertain
Description: Human neuroblastoma M17 cells (seeding density 2×10^5 cells) were grown in 24 well dishes (Falcon) to 70% confluence in Dulbecco's Modified Eagle Medium (DMEM; Invitrogen) plus 10% (v/v) heat-inactivated fetal bovine serum (Invitrogen), penicillin/streptomycin, and 2 mM L-glutamine at 37° C. and 5% CO2, washed twice in phosphate-buffered saline (PBS). Transient transfection was performed with 3 μg parkin cDNA or 3 μg TDP-43 cDNA, or 3 μg LacZ cDNA. Cells were treated with 5 μM tubacin for 24 hours and DAPI stained in 12 well dishes. Cells were harvested 24 hours after transfection. Transfection was performed in DMEM without serum using Lipofectamine 2000 (Invitrogen) according to the manufacturer's protocol. […] Western blot was performed on NuPAGE 4-12% Bis-Tris gel (Invitrogen). Protein estimation was performed using the microscale BioRad protein assay (BioRad Laboratories Inc, Hercules, Calif., USA).
To ascertain that both parkin and HDAC6 are required for TDP-43 translocation, GFP-tagged TDP-43 was expressed in M17 neuroblastoma cells in the presence of wild type or loss-of-function mutant (T240R) parkin, and treated with 5 μM selective HDAC6 inhibitor for 24 hours.
The following data support these conclusions.

With `O=C(CCCCCCC(=O)Nc1ccc([C@H]2O[C@@H](CSc3nc(-c4ccccc4)c(-c4ccccc4)o3)C[C@@H](c3ccc(CO)cc3)O2)cc1)NO` [Tubacin] the “GFP fluorescence (GFP-TDP-43) in the cytosol” value (5 μM for 24 hours, presence or absence of parkin) was “did not lead to GFP fluorescence in the cytosol” and the “translocation of GFP-tagged TDP-43 with Nilotinib or Bosutinib” value (Tubacin (5 µM) for additional 24 hrs) was “impairs translocation”.
